# Reference: US4605669A, “Lipoxygenase inhibiting naphthohydroxamic acids” (Abbott Laboratories, priority 1985, dated 1986)
# Like-named read-outs stand apart in the source and are kept apart here.
# What was measured:
# Assay type in all cases: biochemical
# 5-lipoxygenase = target: T1, 5-lipoxygenase (Rattus norvegicus, UniProt P12527); test: 5-Lipoxygenase IC50 determination (20,000×G supernatant of homogenized RBL-1 cells, radiolabeled arachidonic acid); conditions: 20,000×G supernatant from homogenized RBL-1 cells
# T1 construct: homogenized RBL-1 cells; endogenous in cells; host or cells: RBL-1 cells (20,000×G supernatant of homogenate)
# T1 sequence (P12527 1-673): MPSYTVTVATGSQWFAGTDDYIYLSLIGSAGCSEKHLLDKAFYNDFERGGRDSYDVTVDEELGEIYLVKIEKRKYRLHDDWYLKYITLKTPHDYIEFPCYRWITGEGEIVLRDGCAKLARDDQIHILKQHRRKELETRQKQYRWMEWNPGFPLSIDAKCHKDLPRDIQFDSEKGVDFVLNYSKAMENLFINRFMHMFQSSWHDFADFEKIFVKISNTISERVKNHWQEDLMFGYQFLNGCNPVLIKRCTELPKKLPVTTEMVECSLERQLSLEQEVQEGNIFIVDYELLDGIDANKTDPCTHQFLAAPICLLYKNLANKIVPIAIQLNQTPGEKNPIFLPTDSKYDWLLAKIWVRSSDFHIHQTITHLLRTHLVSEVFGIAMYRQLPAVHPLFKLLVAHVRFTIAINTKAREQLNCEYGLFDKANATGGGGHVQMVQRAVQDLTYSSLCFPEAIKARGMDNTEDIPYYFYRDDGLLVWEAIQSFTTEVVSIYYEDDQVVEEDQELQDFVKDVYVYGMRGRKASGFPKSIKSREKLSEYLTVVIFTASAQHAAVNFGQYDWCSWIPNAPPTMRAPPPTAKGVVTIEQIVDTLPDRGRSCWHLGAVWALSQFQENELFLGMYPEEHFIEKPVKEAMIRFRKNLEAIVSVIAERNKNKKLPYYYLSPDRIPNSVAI
# Procedure: (§1) Reactions were initiated by the addition of radiolabeled arachidonic acid and terminated by acidification and ether extraction. Reaction products were separated from nonconverted substrate by thin layer chromatography and measured by liquid scintillatiton spectroscopy. Inhibition of 5-lipoxygenase activity was calculated as the ratio of the amounts of product formed in the presence and absence of inhibitor.
# 15-lipoxygenase = target: T2, 15-lipoxygenase (Glycine max, UniProt P08170); test: Inhibition of 15-lipoxygenase obtained from soybean; conditions: for inhibition at 10 µM: read-out: % Inhibition at Indicated Concentration, 15-lipoxygenase, 10 uM; for inhibition at 100 µM: read-out: % Inhibition at Indicated Concentration, 15-lipoxygenase, 100 uM
# T2 construct: 15-lipoxygenase obtained from soybean; from tissue; host or cells: soybean
# T2 sequence (P08170 1-839): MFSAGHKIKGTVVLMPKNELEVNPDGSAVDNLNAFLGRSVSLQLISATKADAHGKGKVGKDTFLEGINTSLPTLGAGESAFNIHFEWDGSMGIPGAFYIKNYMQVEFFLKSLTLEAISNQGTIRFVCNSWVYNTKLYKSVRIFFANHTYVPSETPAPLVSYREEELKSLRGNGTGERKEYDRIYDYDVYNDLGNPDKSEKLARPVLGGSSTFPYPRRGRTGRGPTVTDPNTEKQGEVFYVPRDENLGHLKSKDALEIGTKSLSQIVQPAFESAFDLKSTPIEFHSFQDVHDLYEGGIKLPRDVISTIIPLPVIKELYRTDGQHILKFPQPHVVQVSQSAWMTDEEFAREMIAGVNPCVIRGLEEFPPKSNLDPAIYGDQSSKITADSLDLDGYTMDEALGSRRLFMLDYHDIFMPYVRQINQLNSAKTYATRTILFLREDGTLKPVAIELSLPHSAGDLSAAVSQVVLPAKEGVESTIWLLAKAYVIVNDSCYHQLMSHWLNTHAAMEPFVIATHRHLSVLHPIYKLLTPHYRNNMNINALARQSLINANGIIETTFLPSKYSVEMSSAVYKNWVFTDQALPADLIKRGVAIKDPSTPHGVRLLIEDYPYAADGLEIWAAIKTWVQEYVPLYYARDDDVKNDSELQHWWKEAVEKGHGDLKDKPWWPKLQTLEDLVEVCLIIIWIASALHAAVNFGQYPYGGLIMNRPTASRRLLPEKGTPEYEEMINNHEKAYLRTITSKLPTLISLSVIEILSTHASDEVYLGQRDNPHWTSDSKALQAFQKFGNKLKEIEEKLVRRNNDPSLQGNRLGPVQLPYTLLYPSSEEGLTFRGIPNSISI
# Procedure: as §1, with “The compounds of this invention are potent inhibitors of 5-, 12- and 15-lipoxygenase. An assay to determine 5-lipoxygenase activity was performed in incubations containing various concentrations of the test compound and the 20,000×G supernatant from 7.5×10^6 homogenized RBL-1 cells. Reactions” for “Reactions”
# (§2) The inhibitory activities of the compounds of this invention against 12- and 15-lipoxygenase can be determined in the foregoing assay in which 12-lipoxygenase obtained from human platelets, or 15-lipoxygenase obtained from soybean, is substituted for the 5-lipoxygenase-containing cell supernatant fraction.
# 12-lipoxygenase = target: T3, 12-lipoxygenase (Homo sapiens, UniProt P18054); test: Inhibition of 12-lipoxygenase obtained from human platelets; conditions: human platelet 12-lipoxygenase
# T3 construct: 12-lipoxygenase obtained from human platelets; from tissue; host or cells: human platelets
# T3 sequence (P18054 1-663): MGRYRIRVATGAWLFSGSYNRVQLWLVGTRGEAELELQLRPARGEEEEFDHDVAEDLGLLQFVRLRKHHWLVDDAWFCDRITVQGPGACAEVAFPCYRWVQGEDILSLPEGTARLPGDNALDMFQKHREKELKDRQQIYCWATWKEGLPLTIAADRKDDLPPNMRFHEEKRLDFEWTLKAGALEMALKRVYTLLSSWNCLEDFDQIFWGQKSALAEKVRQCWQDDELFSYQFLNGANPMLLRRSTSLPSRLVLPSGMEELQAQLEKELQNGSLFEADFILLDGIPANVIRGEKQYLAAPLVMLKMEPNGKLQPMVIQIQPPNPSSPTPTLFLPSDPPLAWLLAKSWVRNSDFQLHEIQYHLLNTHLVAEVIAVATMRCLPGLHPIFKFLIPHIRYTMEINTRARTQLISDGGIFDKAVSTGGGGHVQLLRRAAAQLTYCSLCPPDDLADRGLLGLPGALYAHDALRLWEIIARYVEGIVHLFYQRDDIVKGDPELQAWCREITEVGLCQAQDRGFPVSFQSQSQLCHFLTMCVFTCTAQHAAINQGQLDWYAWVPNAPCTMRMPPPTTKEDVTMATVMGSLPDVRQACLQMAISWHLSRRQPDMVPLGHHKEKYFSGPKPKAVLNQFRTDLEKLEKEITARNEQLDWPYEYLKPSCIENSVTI
# Procedure: as §1, with “The compounds of this invention are potent inhibitors of 5-, 12- and 15-lipoxygenase. An assay to determine 5-lipoxygenase activity was performed in incubations containing various concentrations of the test compound and the 20,000×G supernatant from 7.5×10^6 homogenized RBL-1 cells. Reactions” for “Reactions”
# as §2
# [1] = 100 uM, soybean 15-lipoxygenase
molecule,measurement,setting,value
6-(1-non-2-enoxy)-2-naphthohydroxamic acid [Example 8],IC50,5-lipoxygenase,2.9 µM
same,"% Inhibition at Indicated Concentration, 15-lipoxygenase, 10 uM","15-lipoxygenase; 10 uM, soybean 15-lipoxygenase",10%
same,"% Inhibition at Indicated Concentration, 15-lipoxygenase, 100 uM",15-lipoxygenase; [1],70%
same,"% Inhibition at Indicated Concentration, 12-lipoxygenase, 10 uM",12-lipoxygenase; 10 uM,74%
same,"% Inhibition at Indicated Concentration, 12-lipoxygenase, 100 uM",12-lipoxygenase; 100 uM,77%
"CCCCCCCCCOc1ccc2cc(C(=O)NO)ccc2c1 [Example 1, 6-(1-nonoxy)-2-naphthohydroxamic acid]",IC50,5-lipoxygenase,20 µM
"COc1ccc2cc(C(=O)NO)ccc2c1 [Example 2, 6-Methoxy-2-naphthohydroxamic acid]",IC50,5-lipoxygenase,8 µM
same,inhibition at 10 µM,15-lipoxygenase,23%
same,inhibition at 100 µM,15-lipoxygenase,44%
"CCCCOc1ccc2cc(C(=O)NO)ccc2c1 [Example 3, 6-(1-butoxy)-2-naphthohydroxamic acid]",IC50,5-lipoxygenase,2 µM
same,inhibition at 10 µM,"15-lipoxygenase; 10 uM, soybean 15-lipoxygenase",45%
same,inhibition at 100 µM,15-lipoxygenase; [1],51%
"CCCCOc1ccc2cc(C(=O)N(C)O)ccc2c1 [Example 4, N-methyl-6-(1-butoxy)-2-naphthohydroxamic acid]",IC50,5-lipoxygenase,0.41 µM
same,inhibition at 10 µM,"15-lipoxygenase; 10 uM, soybean 15-lipoxygenase",29%
same,inhibition at 100 µM,15-lipoxygenase; [1],74%
"CCCCCCCOc1ccc2cc(C(=O)NO)ccc2c1 [Example 5, 6-(1-heptoxy)-2-naphthohydroxamic acid]",IC50,5-lipoxygenase,7.1 µM
"CCCCCCCCOc1ccc2cc(C(=O)NO)ccc2c1 [Example 6, 6-(1-octoxy)-2-naphthohydroxamic acid]",IC50,5-lipoxygenase,6.5 µM
same,inhibition at 10 µM,"12-lipoxygenase; 10 uM, read-out: % Inhibition at Indicated Concentration, 12-lipoxygenase, 10 uM",68%
same,inhibition at 100 µM,"12-lipoxygenase; 100 uM, read-out: % Inhibition at Indicated Concentration, 12-lipoxygenase, 100 uM",71%
"C=CCOc1ccc2cc(C(=O)NO)ccc2c1 [Example 7, 6-(1-prop-2-enoxy)-2-naphthohydroxamic acid]",IC50,5-lipoxygenase,4.6 µM
"O=C(NO)c1ccc2cc(OCc3ccccc3)ccc2c1 [Example 9, 6-(benzyloxy)-2-naphthohydroxamic acid]",IC50,5-lipoxygenase,30 µM
